Values joined by “and” are separate entries in the source; they are usually repeats but may differ in a detail not shown here. Identical values can stand only once. Like-named read-outs stand apart in the source and are kept apart here.
How the values were obtained:
[1] = tested on: AML cell line HL60; test: Anti-proliferation assay on HL60 AML cells; format: cell-based; details: for IC25 / IC75: potential dosing for further experiments
Description: 2500 cells were plated per well in 384 well plates. […] CellTiter Glo was used as a detection reagent. Extracts were incubated with the AML HL60 cells for 72 hours.

[2] = tested on: AML (Acute myeloid leukemia) PDCs, M4 subtype (SB 33866); test: Anti-proliferation assay on AML PDCs; format: cell-based, human; details: for Inhibitory Concentration IC75 / Inhibitory Concentration IC25 / IC50: AML cells (M4); for Inhibitory Concentration IC25: calculated using IC50 and hill slope; for IC50: read-out: Inhibitory Concentration IC50; for inhibition at 10 µM: assay drug control @ 10 uM
Description: Anti-proliferation assays were performed on 6 types of primary patient-derived cancer cells (PDCs) from 6 different human donors, as described in Table 1:
Tests were performed in 384-well plates (24×16), using 1250 to 10,000 cells/well depending on the size and proliferation rate of different PDCs, in 30 ul of culture media (DMEM/F12 with serum and growth factors), with control wells set aside on each plate for media alone (4 wells), untreated PDCs (4 wells), and for PDCs treated with 10 ul of a known anti-cancer drug as a control. […] The outermost rows/columns of the plates were filled with PBS (pH 7.4) to avoid an edge-effect and were considered as blanks.
Standardized aqueous extracts identified in Table 2 were prepared in main stock solutions by dissolving 1 mg of extract in 1 ml PBS (phosphate-buffered saline, pH 7.4).
Anti-Proliferation Assay Protocol: 30 ul of cells were plated at the density of 1250 to 10,000 cells/well. The plate was incubated in a CO2 incubator for 0/N incubation for 24 hours. […] Final assay concentrations of made from stock solutions of standardized aqueous extracts identified in Table 2 were 100 ug/ml, 30 ug/ml, and 10 ug/ml. Since 10 ul extract was added to 30 ul of cell suspension, it diluted 4 times, so to maintain the final assay concentrations, 4× concentrated extract solutions (400 ug/ml, 120 ug/ml, and 40 ug/mo) were prepared from main stock (1 mg/ml) and added to the plate. In all experiments, 10 ul of 4 times concentrated stock (4×) was added to wells containing 30 ul of cell suspension to achieve final assay concentrations at 1X.
Once extracts were added to incubated cells and mixed gently, the plate was given a brief spin and incubated in the CO2 incubator for 72 hours. The plate was removed from the incubator and 10 ul of detection reagent (CellTiterGlo®; Promega Corporation, Wisconsin, USA) added to each well of the 384 well plate. The plate was incubated (10 min) and luminescence counts measured, with luminescence produced proportional to the number of viable (living, metabolically active) cells for each assay. The assay described above is a two-dimensional (2D) assay.
In this Example, AML drugs were used as disease specific controls.
As discussed above in Example I, 6 extracts (Ayuflex®, Capros®, Phyto-BGS®, PrimaVie®, Sensoril®, and Ayuric®) were tested on AML PDC-SB cells (33866, M-4 type, subject) at 3 concentrations: 100 ug/ml, 30 ug/ml, and 10 ug/ml.

[3] = tested on: Glioma SB 32833 Glioblastoma Grade IV patient derived cells; test: Anti-proliferation assay on glioma PDCs SB 32833; format: cell-based; details: Homo sapiens; for inhibition at 10 µM: drug @ 10 uM; for inhibition at 100 µM: Temozolomide @ 100 uM
Description: The anti-cancer activity of AyuFlex®, Capros®, and Ayuric® was further tested on two other glioma PDCs taken from 2-3 different subjects (SB 6129, SB 32833 (person)). […] Also, the anti-cancer activity of AyuFlex®, Capros®, and Ayuric® was further tested on existing glioblastoma cell line U87 MG, to allow comparisons with other compositions known in the art. AyuFlex®, Capros®, and/or Ayuric® were incubated with the new PDC lines and the U87 MG cell line for 72 hours, as described in Example I above.
Table 68 relates to FIG. 31, a graph showing the efficacy of AyuFlex®, Capros®, and/or Ayuric® on Glioma SB 32833 Glioblastoma Grade IV patient derived cells, in a combination study.

[4] = tested on: Glioma PDCs (Glioblastoma Grade IV); test: Anti-proliferation assay (CellTiterGlo, 72 h) on glioma PDCs; format: cell-based, human
Description: (§1) The outermost rows/columns of the plates were filled with PBS (pH 7.4) to avoid an edge-effect and were considered as blanks. Standardized aqueous extracts identified in Table 2 were prepared in main stock solutions by dissolving 1 mg of extract in 1 ml PBS (phosphate-buffered saline, pH 7.4). […] The plate was incubated in a CO2 incubator for 0/N incubation for 24 hours. […] Once extracts were added to incubated cells and mixed gently, the plate was given a brief spin and incubated in the CO2 incubator for 72 hours. The plate was removed from the incubator and 10 ul of detection reagent (CellTiterGlo®; Promega Corporation, Wisconsin, USA) added to each well of the 384 well plate. […] The assay described above is a two-dimensional (2D) assay.

[5] = tested on: Breast Cancer PDCs, ER/PR+ Her2 equivocal (HR+); test: Anti-proliferation assay on breast cancer HR+ PDCs; format: cell-based, human; details: drug alone @ 10 uM; for inhibition at 10 µM: Homo sapiens
Description: as §1

[6] = tested on: Breast Cancer PDCs, ER/PR− Her2+ (Her2+); test: Anti-proliferation assay on breast cancer Her2+ PDCs; format: cell-based, human; details: drug alone @ 10 uM; for inhibition at 10 µM: Homo sapiens
Description: as §1

[7] = tested on: Breast Cancer PDCs, Triple negative (TN), SB 36344; test: Anti-proliferation assay on breast cancer TN PDCs; format: cell-based, human; details: drug alone @ 10 uM; for inhibition at 10 µM: Homo sapiens
Description: as §1

[8] = read-out: % Inhibition, single replicates

For Nc1ccn([C@@H]2O[C@H](CO)[C@@H](O)[C@@H]2O)c(=O)n1 [Cytarabine, cytarabine], the IC25 ([1]; HL60 AML cells) was 298 nM, the IC75 ([1]; HL60 AML cells) was 1080 nM and the inhibition at 3 µM ([1]; Homo sapiens, HL-60) was at least 90%. The IC50 ([1]; Homo sapiens, HL-60, dose-response curve, FIG. 35) was 567 nM, the “Inhibitory Concentration IC75” value [2] was 470 nM and the “Inhibitory Concentration IC25” value [2] was 23 nM. The inhibition at 3 µM ([2]; Homo sapiens, drug alone 3 uM, read-out: inhibition of AML proliferation) was 99%, the inhibition at 3 µM ([2]; Homo sapiens, drug alone @ 3 uM, read-out: % Inhibition Avg) was 99% and the inhibition at 3 µM ([2]; Homo sapiens, drug alone @ 3 uM, read-out: % Inhibition n1) was 99%. For the same compound, the inhibition at 3 µM ([2]; Homo sapiens, drug alone @ 3 uM, read-out: % Inhibition n2) was 99%, the inhibition at 3 µM ([2]; Homo sapiens, drug alone @ 3 uM, read-out: % Inhibition n3) was 99% and the IC50 ([2]; Homo sapiens) was 104 nM.

With CS(=O)(=O)N1CCN(Cc2cc3nc(-c4cccc5[nH]ncc45)nc(N4CCOCC4)c3s2)CC1 [GDC-0941, pictilisib] the inhibition at 10 µM ([3]; read-out: % Inhibition Avg) was 100%, the inhibition at 10 µM ([3]; read-out: % Inhibition n1) was 100% and the inhibition at 10 µM ([3]; read-out: % Inhibition n2) was 100%. It also gave an inhibition at 10 µM ([3]; read-out: % Inhibition n3) of 100%, an inhibition at 10 µM ([2]; Homo sapiens, read-out: % Inhibition Avg) of 59% and an inhibition at 10 µM ([2]; Homo sapiens, read-out: % Inhibition n1) of 56%. The inhibition at 10 µM ([2]; Homo sapiens, read-out: % Inhibition n2) was 63%, the inhibition at 10 µM ([4]; Homo sapiens, drug alone @ 10 uM, read-out: % Inhibition Avg) was 81% and the inhibition at 10 µM ([4]; Homo sapiens, drug alone @ 10 uM, read-out: % Inhibition, single replicates) was 83%. For the same compound, the “% Inhibition, single replicates” value ([4]; drug alone @ 10 uM, 10 µM) was 79%, the inhibition at 10 µM ([5]; read-out: % Inhibition Avg) was 68% and the inhibition at 10 µM [5, 8] was 70%. For the same compound, the “% Inhibition, single replicates” value ([5]; 10 µM) was 67%, the inhibition at 10 µM ([6]; read-out: % Inhibition Avg) was 70% and the inhibition at 10 µM [6, 8] was 71%. For the same compound, the “% Inhibition, single replicates” value ([6]; 10 µM) was 69%, the inhibition at 10 µM ([7]; read-out: % Inhibition Avg) was 83% and the inhibition at 10 µM [7, 8] was 84%. For the same compound, the “% Inhibition, single replicates” value ([7]; 10 µM) was 82%.

Compound Cn1nnc2c(C(N)=O)ncn2c1=O [Temozolomide, temozolomide] has an inhibition at 100 µM ([3]; read-out: % Inhibition Avg) of 27%, an inhibition at 100 µM ([3]; read-out: % Inhibition n1) of 41% and an inhibition at 100 µM ([3]; read-out: % Inhibition n2) of 21%. The inhibition at 100 µM ([3]; read-out: % Inhibition n3) was 18%, the inhibition at 30 µM ([4]; Homo sapiens, Temozolomide alone @ 30 uM) was 24% and the inhibition at 100 µM ([4]; Homo sapiens, Temozolomide alone @ 100 uM, read-out: % Inhibition Avg) was 32%. For the same compound, the inhibition at 100 µM ([4]; Homo sapiens, Temozolomide alone @ 100 uM, read-out: % Inhibition, single replicates) was 41%, the inhibition at 300 µM ([4]; Homo sapiens, Temozolomide alone @ 300 uM, read-out: % Inhibition Avg) was 19% and the inhibition at 300 µM ([4]; Homo sapiens, Temozolomide alone @ 300 uM, read-out: % Inhibition, single replicates) was 28%. The “% Inhibition, single replicates” value ([4]; Temozolomide alone @ 30 uM, 30 µM) was 16% and 15%, the “% Inhibition, single replicates” value ([4]; Temozolomide alone @ 100 uM, 100 µM) was 27% and 29% and the “% Inhibition, single replicates” value ([4]; Temozolomide alone @ 300 uM, 300 µM) was 14% and 15%.

arsenic trioxide gave an IC50 ([1]; HL60 AML cells) of 2430 nM, an IC25 ([1]; HL60 AML cells) of 1720 nM and an IC75 ([1]; HL60 AML cells) of 3010 nM. For the same compound, the IC50 ([1]; dose-response curve, FIG. 35) was 2300 nM, the “Inhibitory Concentration IC75” value [2] was 6450 nM and the “Inhibitory Concentration IC25” value [2] was 1380 nM. The IC50 [2] was 2990 nM, the “inhibition of AML proliferation” value ([2]; drug alone 3 uM) was 97% and the “% Inhibition Avg” value ([2]; drug alone @ 3 uM) was 97%. For the same compound, the “% Inhibition n1” value ([2]; drug alone @ 3 uM) was 97%, the “% Inhibition n2” value ([2]; drug alone @ 3 uM) was 97% and the “% Inhibition n3” value ([2]; drug alone @ 3 uM) was 97%.

From patent publication US20220233624A9, “ANTI-CANCER AND ANTI-PROLIFERATIVE COMPOSITIONS, AND METHODS FOR THEIR USE IN TREATING CANCER” (Natreon, Inc., priority 2020, published 2022)
